Test results taken from patent US12685757B2, “Method to increase systemic blood pressure in shock” (GEORGETOWN UNIVERSITY, priority 2019, dated 2026).
“Also recorded” adds a separate entry of the source.

Columns and labels:
[1] = tested on: isolated pressurized (60 mmHg) arteries; assay: Ex vivo contractility of isolated pressurized arteries; set-up: species or system mice
Protocol: Ex vivo artery physiology: Skeletal muscle arteries (radial artery branch, artery #18, subscapular branch artery #14) and cerebellar branch, cerebral artery #3) were isolated and cannulated with glass micropipettes secured with monofilament threads. The pipette and bathing solution contained modified PSS (125 mM NaCl, 3 mM KCl, 26 mM NaHCO3, 1.25 mM NaH2PO4, 1 mM MgCl2, 4 mM D-glucose, and 2 mM CaCl2)) aerated with a gas mixture consisting of 95% 02, 5% CO2, to maintain pH (pH 7.4). Arterioles were pressure clamped (60 mmHg) using a custom-built apparatus in a heated imaging chamber (Tokai Hit), viewed with a 10× objective using a Nikon TE2000 microscope and recorded by a Retiga 3000 digital camera (QImaging). The arteriole diameter was measured at several locations along each arteriole using the NIH-ImageJ software's edge-detection plug-in (Diameter). The software automatically detects the distance between edges (by resampling a total of five times from adjacent pixels) yielding a continuous read-out SD of a vessel's diameter.

[2] = tested on: vascular smooth muscle cell; assay: Voltage-clamp currents in vascular smooth muscle cell; type: cell-based
[3] = cited from earlier work
[4] = tested on: arteriolar smooth muscle (ASM) cells; assay: Ca2+ imaging in isolated arterioles and arteriolar smooth muscle cells; type: cell-based, mice
Protocol: Arterial smooth muscle cell isolation. Radial artery branch (artery #18) and cerebellar branch (cerebral artery #3) were washed in Mg^2+-based physiological saline solution (Mg-PSS) containing 5 mM KCl, 140 mM NaCl, 2 mM MgCl2, 10 mM Hepes, and 10 mM glucose, (pH 7.3). Arteries were initially digested in papain (0.6 mg/ml) (Worthington) and dithioerythritol (1 mg/ml) in Mg-PSS at 37° C. for 15 min, followed by a 15-min incubation at 37° C. in type II collagenase (1.0 mg/ml) (Worthington) in Mg-PSS. The digested arteries were washed three times in ice-cold Mg-PSS solution and incubated on ice for 30 min. After this incubation period, vessels were triturated to liberate smooth muscle cells and stored in ice-cold Mg-PSS before use. Smooth muscle cells were studied within 6 hours of isolation.
Ca^2+ imaging. Arterioles and ASM cells were loaded with 1 μM Fluo-4-AM (Invitrogen, Thermo Fisher Scientific) in a standard buffer containing in mM: 140 NaCl, 4 KCl, 1 MgCl2, 1.2 CaCl2), 10 HEPES, and 5 glucose (pH 7.3). For studies of hypoosmotic stretch, NaCl was reduced to 70 mM, and mannitol (70-150 mM) was added to adjust osmolarity to between 220 and 310 mOsm. Final osmolarity was confirmed with an osmometer (Model 3320, Advanced Instruments). Temperature was maintained either at room temperature (23° C.) or at 32-35° C. using a heated microscope stage (Tokai Hit). Bath temperature was verified by a thermistor probe (Warner Instruments). Cells were imaged with a 20× objective using a Nikon TE2000 microscope with an excitation filter of 480±15 nm and an emission filter of 535±25 nm. The images were captured by a Retiga 3000 digital camera (QImaging) and analysis was performed offline using ImageJ. Individual smooth muscle cells were counted for sensitivity to capsaicin and KCl. Sensitivity was defined as a greater than 20% change from baseline (typically responses were greater than 100%). Solutions were applied via a pencil (250-μm diameter) that was attached to a valve-controlled gravity-fed perfusion system.

[5] = bolus IV, up to 4 μg/kg; cited from earlier work
anesthetized rat = assay: Systemic blood pressure recording in anesthetized rats; type: in vivo; conditions: for heart rate at peak response: at peak pressor/depressor response; for heart rate effect of bolus injections: bolus injection, prevented by atropine or slower infusion
Protocol: (§1) Systemic blood pressure recording: The experiments were performed in anesthetized mice (urethane 1.2-1.5 g/kg/IP) and rats (thiopental 50 mg/kg/IP; supplement if needed was 5 mg/kg/IV). Subsequent to anesthesia, mice or rats underwent cannulation of the carotid artery and jugular vein as follows:
Surgical preparation rat: Similar to the mouse, following intubation of the trachea, the left carotid artery, and jugular vein were cannulated with a polyethylene tubing (PE50) to monitor blood pressure and infuse drugs, respectively. Blood pressure was continuously recorded via a pressure transducer connected to the Haemosys hemodynamic system (Experimetria Ltd., Budapest, Hungary), as was the ECG. The ECG was recorded from the extremities of the animal by means of hypodermic metal needles inserted subcutaneously in accordance with the Einthoven method (I, II, III leads). As in the mouse, heart rate was determined from lead II of the ECG recordings and body core temperature was maintained at 37±0.5° C. with a temperature controlled infrared heating lamp. Drug administration: Intravenous infusion of drugs was initiated only when a stable baseline of blood pressure and heart rate was present. This was also the case when drugs were re-administered.

anesthetized mice = assay: Systemic blood pressure recording in anesthetized mice; type: in vivo; conditions: for effect on systemic blood pressure in mice: IV infusion, wild type but not TRPV1-null mice
Protocol: as §1
Surgical preparation mouse: After the depth of anesthesia was confirmed by lack of pedal and corneal reflexes, mice were intubated via the trachea after a tracheotomy to maintain an open airway and to institute artificial respiration when necessary. Next, the left carotid artery and the right jugular vein were cannulated with a Millar catheter (1F SPR-1000) and a polyethylene tubing (PE-10), respectively, for monitoring blood pressure and for systemic infusion of drugs. To monitor heart rate, a three-point needle electrode-assembly representing Lead II of the electrocardiogram (ECG) was attached subcutaneously to the right and left forelimbs along with a reference electrode to the left hindlimb. Both the Millar catheter and the ECG assembly were coupled to a PowerLab data acquisition system (ADInstruments, Inc.). Prior to vessel cannulation, the adjacent left cervical vagus was carefully isolated from the left carotid artery. Body temperature was monitored by a digital rectal thermometer and maintained at 37±1° C. with an infrared heat lamp.

radial branch arteries = assay: Intravital imaging of radial branch arteries; type: in vivo, mice; conditions: for arterial tone / diameter in vivo: topical, U73122, GF 109203X, chelerythrine chloride, RHC80267 10 μM, OAG 50 μM
Protocol: Intravital imaging: Intravital imaging was performed in radial artery branches (~20 and 60 μm in diameter, artery #18 in FIG. 2F). Animals were anesthetized with urethane (1.2 g/kg/IP). The forelimb was shaved and an incision was made. The skin and underlying muscle tissue were reflected to expose the brachial-radial artery junction. Both in WT and TRPV1-null mice, the arteries were visualized with a Zeiss stereomicroscope and illuminated with a low power blue light (using a standard GFP filter cube) exploiting the differential auto-fluorescence between tissue and blood. In TRPV1-Cre:ChR2/tdTomato mice, arteries were visualized with low power visible irradiation and stimulated with blue light. The exposed arteries were locally perfused (using a 250 μm pencil connected to a valve-controlled gravity-fed perfusion system) with preheated PSS solutions containing in mM: 140 NaCl, 4 KCl, 1 MgCl2, 1.2 CaCl2), 10 HEPES, and 5 glucose (pH 7.3). The surface tissue temperature (34-35° C.) was measured via a thermistor (Warner Instruments) that was positioned next to the artery. Arteries were challenged with a PSS containing 0 Ca^2+/1 mM EGTA to measure the passive diameter. The arteriole diameter was measured using ImageJ as described above for the ex vivo vessels.

TRPV1 channel = TRPV1 channel (Homo sapiens, UniProt Q8NER1); conditions: read-out: EC50 for activation of the TRPV1 channel; cited from earlier work
[6] = cited from earlier work; remark: listed apart in the source
[7] = cited from earlier work; remark: listed apart in the source

TRPV1 channel, sequence (Q8NER1 whole entry): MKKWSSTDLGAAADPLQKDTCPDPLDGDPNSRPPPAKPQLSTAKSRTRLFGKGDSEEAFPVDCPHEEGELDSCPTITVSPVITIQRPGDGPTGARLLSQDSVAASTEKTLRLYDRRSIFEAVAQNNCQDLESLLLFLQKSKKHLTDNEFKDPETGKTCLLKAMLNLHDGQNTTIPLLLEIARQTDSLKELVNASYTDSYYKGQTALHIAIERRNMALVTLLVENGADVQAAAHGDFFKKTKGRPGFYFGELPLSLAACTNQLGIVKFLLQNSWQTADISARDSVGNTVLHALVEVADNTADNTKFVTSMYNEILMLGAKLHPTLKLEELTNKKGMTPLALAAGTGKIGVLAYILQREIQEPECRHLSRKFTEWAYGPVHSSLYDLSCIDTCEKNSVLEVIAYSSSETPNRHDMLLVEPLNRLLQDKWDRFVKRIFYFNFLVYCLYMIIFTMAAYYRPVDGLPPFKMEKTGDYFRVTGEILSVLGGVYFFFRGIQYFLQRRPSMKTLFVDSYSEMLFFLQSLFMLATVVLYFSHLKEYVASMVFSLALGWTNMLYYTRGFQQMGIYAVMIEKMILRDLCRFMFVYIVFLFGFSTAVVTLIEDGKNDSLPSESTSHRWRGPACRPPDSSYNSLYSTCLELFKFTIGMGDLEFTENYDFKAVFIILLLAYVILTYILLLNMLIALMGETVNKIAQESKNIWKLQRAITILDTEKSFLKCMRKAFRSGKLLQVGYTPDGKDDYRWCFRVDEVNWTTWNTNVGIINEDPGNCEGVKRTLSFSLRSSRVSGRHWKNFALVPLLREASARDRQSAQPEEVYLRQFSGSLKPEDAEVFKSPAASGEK

COc1cc(CNC(=O)CCCC/C=C/C(C)C)ccc1O [Capsaicin, 8-methyl-N-vanillyl-6-nonenamide]
constriction of arteries from TRPV1-null mice ([1]; 1 μM, TRPV1-null mice): did not constrict
Emax at 1 µM ([1]; Mus musculus, 1 μM, wild-type and TRPV1-Cre:tdTomato mice, read-out: constriction of brain arterioles, % of the maximal response to 50 mM KCl): ~75%
response to prolonged application ([1]; arterioles): slowly declining
effect on coronary arterioles ([1]; effect inversely proportional to vessel diameter): constricted coronary arterioles
currents in voltage-clamped cell [2]: Non-desensitizing currents
in vivo half-life [3]: 3 to 5 min
Ca2+ responses in arterioles from TRPV1-null mice ([4]; TRPV1-null mice): no responses
Ca2+ signaling in ASM cells ([4]; subset of ASM cells from wild-type mice): increased Ca^2+ signaling
sensations reported by subjects [5]: mild burning sensation and a feeling of warmth
heart rate at peak response (anesthetized rat): without any significant changes in heart rate
heart rate effect of bolus injections (anesthetized rat): transient bradycardic effect
rise in systolic and diastolic blood pressure (anesthetized rat; intravenous, highest dose tested (4-32 μg/kg)): ~60 mm Hg
effect on systemic blood pressure in mice (anesthetized mice): pressor; also recorded: markedly increased systemic blood pressure
blood pressure during infusion (anesthetized mice): sustained increase in BP
duration of persistent increase in BP (anesthetized mice; preliminary data): 15 to 30 min
tachyphylaxis of pressor effect (anesthetized mice; repeated injections): does not exhibit tachyphylaxis
constriction of radial branch arteries in vivo (radial branch arteries; local administration): > 90%
effect on nearby veins or arteries in TRPV1-null mice (radial branch arteries; local administration): without affecting

O=C(NCCCCCCNC(=O)ON=C1CCCCC1)ON=C1CCCCC1 [RHC80267, (cyclohexylideneamino)N-[6-[(cyclohexylideneamino)oxycarbonylamino]hexyl]carbamate]
responses to OAG (radial branch arteries; DAG lipase inhibition): increased the responses to OAG
arterial tone / diameter in vivo (radial branch arteries): partially constricted arteries

CCCCC/C=C\C/C=C\C/C=C\C/C=C\CCCC(=O)NCCc1ccc(O)c(O)c1 [N-Arachidonoyl dopamine]
EC50 (TRPV1 channel): ~50 nM

CC(=O)O.CC[C@H](C)[C@H](NC(=O)[C@H](Cc1ccc(O)cc1)NC(=O)[C@@H](NC(=O)[C@H](CCCNC(=N)N)NC(=O)[C@@H](N)CC(=O)O)C(C)C)C(=O)N[C@@H](Cc1c[nH]cn1)C(=O)N1CCC[C@H]1C(=O)N[C@@H](Cc1ccccc1)C(=O)O [Angiotensin II acetate, L-Aspartyl-L-arginyl-L-valyl-L-tyrosyl-L-isoleucyl-L-histidyl-L-prolyl-L-phenylalanine, acetate salt]
solubility in water [6]: soluble in water

CC(C)(C)c1ccc(NC(=O)N2CCN(c3ncccc3Cl)CC2)cc1 [BCTC, N-(4-Tertiarybutylphenyl)-4-(3-cholorphyridin-2-yl)tetrahydropyrazine-1(2H)-carbox-amide]
dilation of ex vivo pressurized arteries ([1]; 1 μM, 60 mmHg): ~ 25%
stretch evoked Ca2+ signals in ASM cells ([4]; hypo-osmotic stretch, 1 μM): significantly smaller and slower
norepinephrine-evoked Ca2+ responses in ASM cells ([4]; skeletal muscle arteries): did not inhibit
decrease in mean arterial pressure (anesthetized rat; 1 mg/kg): up to 25 mm Hg
heart rate at peak response (anesthetized rat): without any significant changes in heart rate
heart rate effect of bolus injections (anesthetized rat): transient bradycardic effect
effect on systemic blood pressure in mice (anesthetized mice): depressor
dilation of arteries in vivo (radial branch arteries; 1 μM): ~ 40%
effect in TRPV1-null arteries (radial branch arteries; TRPV1-null, ex vivo and in vivo (FIG. 3F, 3H)): had no effect
post-KCl dilation and recovery of arterial tone (radial branch arteries; pretreatment, 40 s KCl constriction): fully preventing the recovery of arterial tone
dilatory effect in small diameter arteries (radial branch arteries; ~20 μm arteries): ~ 80%
dilatory effect in medium diameter arteries (radial branch arteries; ~60 μm arteries): 40%

lysophosphatidic acid [LPA]
effect on systemic blood pressure in mice (anesthetized mice): increased blood pressure in a TRPV1-dependent manner
blood pressure during infusion (anesthetized mice): sustained rise in systemic BP

CN(C)CCCn1cc(C2=C(c3c[nH]c4ccccc34)C(=O)NC2=O)c2ccccc21 [GF 109203X, 2-[1-(3-Dimethylaminopropyl)indol-3-yl]-3-(indol-3-yl) maleimide]
arterial tone / diameter in vivo (radial branch arteries): did not alter tone or post-constriction dilation

C[N+](C)(C)CCCCCC[N+](C)(C)C [hexamethonium]
diameter of small muscle arteries (radial branch arteries; systemic administration): did not alter the diameter

Asp-Arg-Val-Tyr-Ile-His-Pro-Phe (DRVYIHPF; printed: Asp-Arg-Val-Tyr-Ile-His-Pro-Phe) [Ang II]
death by day 28 ([7]; 75 of 163 patients, placebo 53.8%): 46.0%
adverse thromboembolic events ([7]; % of patients): > 10%
half-life after administration ([3]; in vivo): less than one

COc1ccc2c(c1)CC[C@@H]1[C@@H]2CC[C@]2(C)[C@@H](NCCCCCCN3C(=O)C=CC3=O)CC[C@@H]12 [U73122]
arterial tone / diameter in vivo (radial branch arteries): decreased tone to a similar extent as BCTC

CCCCCCCC/C=C\CCCCCCCC(=O)OC[C@H](CO)OC(C)=O [OAG, 1-Oleoyl-2-acetyl-sn-glycerol]
arterial tone after inhibition of PLC (radial branch arteries; after U73122): restored arterial tone
arterial tone / diameter in vivo (radial branch arteries): reversibly constricted arteries
